Source: patent publication US10413541B2, “Oxabicycloheptanes and oxabicycloheptenes for the treatment of depressive and stress disorders” (LIXTE BIOTECHNOLOGY, INC., priority 2015, dated 2019)
Entries after “also recorded” stand apart in the source; their conditions may differ. Read-outs that look alike come from different tables or passages of the source.

Tests used:
Assay type in all cases: cell-based, mice
[1] = test system: GABAB-GIRK currents in LHb neurons; settings: for I-baclofen, residual current independent of GIRKs: barium 1 mM in the bath
LHb neurons [2] = experiment: Cell-attached recording of spontaneous firing of LHb neurons; settings: baclofen application, then CGP54626 10 μM
Experimental: (§1) Animals were anesthetized with Ketamine/Xylazine (50 mg/10 mg Kg-1 i.p.; Sigma-Aldrich, France). The preparation of LHb-containing brain slices was done in bubbled ice-cold 95% O2/5% CO2-equilibrated solution containing (in mM): cholineCl 110; glucose 25; NaHCO3 25; MgCl2 7; ascorbic acid 11.6; Na+-pyruvate 3.1; KCl 2.5; NaH2PO4 1.25; CaCl2 0.5. Sagittal slices (250 μm) were stored at room temperature in 95% O2/5% CO2-equilibrated artificial cerebrospinal fluid (ACSF) containing (in mM): NaCl 124; NaHCO3 26.2; glucose 11; KCl 2.5; CaCl2 2.5; MgCl2 1.3; NaH2PO4 1. Recordings (flow rate of 2.5 ml/min) were made under an Olympus-BX51 microscope (Olympus, France) at 32° C. Currents were amplified, filtered at 5 kHz and digitized at 20 kHz. Access resistance was monitored by a step of −4 mV (0.1 Hz). Experiments were discarded if the access resistance increased more than 20%.
(§2) The internal solution to measure GABAB-GIRK currents and neuronal excitability contained 140 mM potassium gluconate, 4 mM NaCl, 2 mM MgCl2, 1.1 mM EGTA, 5 mM HEPES, 2 mM Na2ATP, 5 mM sodium creatine phosphate, and 0.6 mM Na3GTP (pH 7.3), with KOH. When we measured the synaptic inhibitory or excitatory release the internal solution contained (in mM): CsCl 130; NaCl 4; MgCl2 2; EGTA 1.1; HEPES 5; Na2ATP 2; Na+-creatine-phosphate 5; Na3GTP 0.6, and spermine 0.1. The liquid junction potential was −3 mV. For cell-attached recordings the internal solution consisted in ACSF.
(§3) Cell-attached recordings in ACSF were performed in GΩ seal with a Vc=0 and Hc=0. Whole-cell voltage clamp recordings were achieved to measure GABAB-GIR currents in presence of Bicuculine (10 μM), NBQX (20 μM) and AP5 (50 μM). […] GABAB-GIRK currents were confirmed by antagonism with either 10 μM of CGP54626, a specific GABAB antagonist or 1 mM Ba^2, a selective inhibitor of inward rectifiers. For the GTPγS experiment, 100 μM of GTPγS was added to the internal solution in place of Na3GTP.

LHb neurons [3] = experiment: Current-clamp excitability (evoked action potentials, input-output curve) of LHb neurons in slices; settings: baclofen bath application, saturating dose
Experimental: as §1, §2
For the Okadaic acid (OA) and the CaMKII inhibitor KN93 experiments, respectively 100 nM of OA or 10 μM of KN93 were added in the internal solution. For the PP2A inhibitor LB100 experiments, LB100 (0.1 μM) was applied in the bath. Miniature excitatory postsynaptic currents (mEPSCs) were recorded in voltage-clamp mode at −60 mV in presence of bicuculine (10 μM) and TTX (1 μM). Miniature inhibitory postsynaptic currents (mIPSCs) were recorded (−60 mV) in presence of NBQX (20 μM) and TTX (1 μM). EPSCs and IPSCs were evoked through an ACSF filled monopolar glass electrode placed 200 μm from the recording site in the stria medullaris. AMPA:NMDA ratios of evoked-EPSC were obtained by AMPA-EPSC −60 mV/NMDA-EPSCs at +40 mV. Rectification Index (RI) was computed by […]-60/AMPA-EPSC+40. For the experiments in which high-frequency stimulation trains were used to determine presynaptic release probability, QX314 (5 mM) was included in the internal solution to prevent the generation of sodium spikes. Current-clamp experiments, were performed by a series of current steps (negative to positive) injected to induce action potentials (5-10 pA injection current per step, 800 ms).

GIRK channels = experiment: GTPγS-induced Ba2+-sensitive outward current (I-GTPγS) in LHb neurons of brain slices; settings: GTPγS 100 μM in the internal solution
Experimental: as §1, §3

[4] = KN93 10 μM intracellular dialysis
[5] = Okadaic acid 100 nM intracellular dialysis

With `NCC(CC(=O)O)c1ccc(Cl)cc1` (centres unmarked) [baclofen] the I baclofen ([1]; 1 h after exposure to fox urine (OPE mice)) was 47.4±7.9, the I baclofen ([1]; CTRL mice of odor predator exposure paradigm) was 110.5±29.1 and the I-baclofen ([1]; CTRL mice of restraint stress procedure) was 121.7±14.8. The I-baclofen ([1]; baclofen 100 μM, FsE mice, 1 hour after) was 55.4±7.2 pA, the I-baclofen ([1]; baclofen 100 μM, FsE mice, 1 day after) was 59.8±9.6 pA and the I-baclofen ([1]; baclofen 100 μM, FsE mice, 7 days after) was 40.1±9.0 pA. The I-baclofen ([1]; baclofen 100 μM, FsE mice, 14 days after) was 39.6±6.6 pA, the I-baclofen ([1]; baclofen 100 μM, FsE mice, 30 days after) was 133.0±26.1 pA and the “I-baclofen, residual current independent of GIRKs” value ([1]; CTRL mice) was 21.3±3.7. The “I-baclofen, residual current independent of GIRKs” value ([1]; FsE mice) was 21.3±9.1, the I-baclofen ([1]; restraint stress (RS) mice, 1 h after the procedure) was 68.3±15.3 and the “Firing rate of LHb neurons” value (LHb neurons [2]; CTRL mice) was 0.33±0.11 Hz. For the same molecule, the “Firing rate of LHb neurons” value (LHb neurons [2]; FsE mice) was 4.89±1.40 Hz, the “Firing of LHb neurons evoked by current steps (20 pA)” value (LHb neurons [3]; FsE animals) was “only partially decreased” and the “Firing of LHb neurons evoked by current steps (20 pA)” value (LHb neurons [3]; control mice) was “significantly depressed”.

With `[Ba+2]` [barium] the “Effect on I-Baclofen” value ([1]; barium 1 mM) was “abolished”.

For `Nc1nc2c(ncn2[C@@H]2O[C@H](COP(=O)(O)OP(=O)(O)OP(O)(O)=S)[C@@H](O)[C@H]2O)c(=O)[nH]1` [GTPγS, reference compound], the “GTPγS-evoked Ba2+-sensitive outward current” value (GIRK channels; CTRL mice) was 92.55±21.83 pA and the “GTPγS-evoked Ba2+-sensitive outward current” value (GIRK channels; FsE mice) was 38.00±5.27 pA.

With `COc1ccc(S(=O)(=O)N(CCO)c2ccccc2CN(C)C/C=C/c2ccc(Cl)cc2)cc1` [KN93] the I-baclofen current ([1]; KN93 10 μM in the internal solution, CTRL mice) was 106.3±18.37 pA, the “FsE induced reduction of GABAB-GIRK currents” value [1, 4] was “failed to recover; also recorded: does not affect” and the “I-Baclofen at baseline (control mice)” value [1, 4] was “did not affect”.

In the case of `C=C1[C@@H](O)[C@@H]2O[C@]3(CC[C@H](/C=C/[C@@H](C)[C@@H]4CC(C)=C[C@@]5(O[C@H](C[C@@](C)(O)C(=O)O)CC[C@H]5O)O4)O3)CC[C@H]2O[C@@H]1[C@@H](O)C[C@H](C)[C@H]1O[C@@]2(CCCCO2)CC[C@H]1C` [Okadaic Acid], the I-baclofen current ([1]; Okadaic Acid 100 nM in the internal solution, CTRL mice) was 130.7±25.25 pA, the I-baclofen current ([1]; Okadaic Acid 100 nM in the internal solution, FsE mice) was 120.4±25.61 pA and the “I-baclofen CTRL vs FsE” value ([1]; Okadaic Acid 100 nM intracellular dialysis, listed as OA) was “comparable to control mice”. For the same molecule, the “I-Baclofen at baseline (control mice)” value [1, 5] was “comparable to naïve condition” and the “I-baclofen CTRL vs FsE” value [1, 5] was “no difference between groups”.

For `C[C@H](NC[C@H](O)CP(=O)(O)CC1CCCCC1)c1ccc(Cl)c(Cl)c1` [CGP54626], the “Reversal of I-baclofen” value ([1]; CGP54626 10 μM) was “fully reversed; also recorded: readily reversed”, the “Firing rate of LHb neurons” value (LHb neurons [2]; CTRL mice) was 3.62±0.65 Hz and the “Firing rate of LHb neurons” value (LHb neurons [2]; FsE mice) was 8.23±2.25 Hz.
